The source made the active and inactive calls. The rule behind the calls is not given here.

In series [1] the test system is Human coronavirus 229E. Nature of the series: Antiviral activity against HCoV-229E. In kind it is functional, organism-based.
Series [2] has as its system Human coronavirus OC43. The series is described as follows: Antiviral activity against HCoV-OC43. In kind it is functional, organism-based.
For series [3], the system named is Human coronavirus OC43. Nature of the series: Antiviral activity against HCoV-OC43 infected in human NCI-H460 cells incubated for 72 hrs by CCK8 assay. The conditions noted are these: Betacoronavirus 1, NCI-H460, 72 h. In kind it is functional, organism-based. In general terms: Tetrazolium assays rely on reduction of a dye to a coloured formazan, in cell work by metabolically active cells.

The nature of series [4]: Cytotoxicity against human NCI-H460 cells incubated for 72 hrs by CCK8 assay. In kind it is toxicity, cell-based. Conditions: read-out: EC50.
Series [5] can be described thus: Selectivity index, ratio of CC50 for cytotoxicity against human NCI-H460 cells to EC50 for antiviral activity against HCoV-OC43 infected in human NCI-H460 cells. In kind it is toxicity, cell-based, NCI-460. The conditions noted are these: read-out: Ratio CC50/EC50.
Series [6] addresses T1, DIS3-like exonuclease 2 (Homo sapiens) (UniProt Q8IYB7).
T1 sequence (whole entry): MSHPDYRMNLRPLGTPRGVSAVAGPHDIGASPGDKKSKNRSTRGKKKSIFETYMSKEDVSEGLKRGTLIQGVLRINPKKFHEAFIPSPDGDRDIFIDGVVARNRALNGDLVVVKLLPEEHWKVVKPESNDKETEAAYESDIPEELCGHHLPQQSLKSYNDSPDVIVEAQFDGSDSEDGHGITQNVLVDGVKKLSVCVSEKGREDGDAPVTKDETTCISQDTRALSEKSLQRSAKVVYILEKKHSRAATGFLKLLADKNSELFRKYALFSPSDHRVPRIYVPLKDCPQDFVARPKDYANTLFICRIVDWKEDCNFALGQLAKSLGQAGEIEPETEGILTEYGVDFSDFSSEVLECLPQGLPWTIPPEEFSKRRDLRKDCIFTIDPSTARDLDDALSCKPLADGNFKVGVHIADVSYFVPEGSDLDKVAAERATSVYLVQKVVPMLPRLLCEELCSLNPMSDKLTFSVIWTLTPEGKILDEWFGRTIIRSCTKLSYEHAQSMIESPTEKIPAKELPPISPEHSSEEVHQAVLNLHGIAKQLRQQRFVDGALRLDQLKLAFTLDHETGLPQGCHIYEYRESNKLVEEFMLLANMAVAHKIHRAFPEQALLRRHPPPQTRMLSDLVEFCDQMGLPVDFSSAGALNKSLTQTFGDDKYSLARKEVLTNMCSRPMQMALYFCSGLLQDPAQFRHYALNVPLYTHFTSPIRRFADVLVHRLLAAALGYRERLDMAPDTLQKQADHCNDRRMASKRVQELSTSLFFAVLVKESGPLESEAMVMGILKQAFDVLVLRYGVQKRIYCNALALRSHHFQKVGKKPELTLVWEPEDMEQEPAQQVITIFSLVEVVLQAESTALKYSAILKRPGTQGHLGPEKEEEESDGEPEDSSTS
Nature of the series: Binding affinity to DIS3L2 in human NCI-H460 cells assessed as increase in thermal stability at 10 uM incubated for 6 hrs followed by heat exposure at 55 to 75 degreeC for 3 mins by CETSA. In kind it is cell-based. Conditions: time 363.0 min.

Series [7] concerns Human coronavirus 229E. The series is described as follows: Antiviral activity against HCoV-229E at replication stage in human Huh-7 cells assessed as dsRNA level at 2 uM treated immediately after infection incubated for 4 to 10 hrs by immunofluorescence based analysis. It counts as functional, organism-based. The conditions noted are these: time 4-10 hrs.
A further series relates to FSE RNA pseudoknot. The series is described as follows: Binding affinity to CM5 chip-immobilized coronavirus FSE RNA pseudoknot assessed as dissociation constant by SPR analysis. In kind it is nucleic-acid assay, unidentified human coronavirus. In general terms: In SPR one partner is held on a chip, and binding of the other changes the refractive index at the surface.

Series [8] deals with T1, DIS3-like exonuclease 2 (Homo sapiens). Nature of the series: (§1) Binding affinity to DIS3L2 (unknown origin) assessed as dissociation constant by SPR analysis.
For the next series, the target named is T2, DIS3-like exonuclease 2 (Homo sapiens, UniProt Q8IYB7).
T2 sequence (Q8IYB7 whole entry): T1 sequence (whole entry)
The series is described as §1.

In series [9] the test system is Human coronavirus OC43. Nature of the series: Antiviral activity against HCoV-OC43 at replication stage in human Huh-7 cells assessed as dsRNA level at 2 uM treated immediately after infection incubated for 4 to 10 hrs by immunofluorescence based analysis. It counts as functional, organism-based. Conditions: time 4-10 hrs.

For `CO[C@@H]1[C@@H](O[C@@H]2O[C@H](C)[C@@H](O[C@H]3C[C@@](C)(O)[C@@H](OC(=O)CC(C)C)[C@H](C)O3)[C@H](N(C)C)[C@H]2O)[C@@H](CC=O)C[C@@H](C)[C@@H](O[C@H]2CC[C@H](N(C)C)[C@@H](C)O2)/C=C/C=C/C[C@@H](C)OC(=O)C[C@H]1O`, the EC50 with Human coronavirus 229E [1] (Human coronavirus 229E) was found to be 3.61 µM; in the series on Human coronavirus OC43 [2] (Betacoronavirus 1), 5.95 µM.
On the same counts, the results for `CCC(=O)O[C@@H]1CC(=O)O[C@H](C)C/C=C/C=C/[C@H](O[C@H]2CC[C@H](N(C)C)[C@@H](C)O2)[C@H](C)C[C@H](CC=O)[C@H](O[C@@H]2O[C@H](C)[C@@H](O[C@H]3C[C@@](C)(O)[C@@H](OC(=O)CC(C)C)[C@H](C)O3)[C@H](N(C)C)[C@H]2O)[C@H]1OC` are 3.52 µM and 10.2 µM.
On the same counts, the results for `CO[C@@H]1[C@@H](O[C@@H]2O[C@H](C)[C@@H](O[C@H]3C[C@@](C)(O)[C@@H](OC(=O)CC(C)C)[C@H](C)O3)[C@H](N(C)C)[C@H]2O)[C@@H](CC=O)C[C@@H](C)[C@@H](O[C@H]2CC[C@H](N(C)C)[C@@H](C)O2)/C=C/C=C/C[C@@H](C)OC(=O)C[C@H]1OC(C)=O` are 6.38 µM and 11.8 µM.
In the case of `CCC(=O)O[C@@H]1CC(=O)O[C@H](C)C/C=C/C=C/[C@H](O[C@H]2CC[C@H](N(C)C)[C@@H](C)O2)[C@H](C)C[C@H](CC=O)[C@H](O[C@@H]2O[C@H](C)[C@@H](O[C@H]3C[C@@](C)(O)[C@@H](O)[C@H](C)O3)[C@H](N(C)C)[C@H]2O)[C@H]1OC`, the values for the half-maximal effective concentration (EC50) in the series on Human coronavirus 229E [1] (Human coronavirus 229E) and with Human coronavirus OC43 [2] (Betacoronavirus 1) were 27.4 µM and greater than 50 µM, respectively.
Turning to `CO[C@@H]1[C@@H](O[C@@H]2O[C@H](C)[C@@H](O[C@H]3C[C@@](C)(O)[C@@H](O)[C@H](C)O3)[C@H](N(C)C)[C@H]2O)[C@@H](CC=O)C[C@@H](C)[C@@H](O[C@H]2CC[C@H](N(C)C)[C@@H](C)O2)/C=C/C=C/C[C@@H](C)OC(=O)C[C@H]1OC(C)=O`, the half-maximal effective concentration (EC50) is 25.4 µM in the series with Human coronavirus 229E [1] (Human coronavirus 229E) and greater than 50 µM in the series with Human coronavirus OC43 [2] (Betacoronavirus 1).
On to SPIRAMYCIN, for which the EC50 is 29.3 µM in the series on Human coronavirus 229E [1] and greater than 50 µM in the series with Human coronavirus OC43 [2].
On to `CO[C@@H]1[C@@H](O[C@@H]2O[C@H](C)[C@@H](O[C@H]3C[C@@](C)(O)[C@@H](OC(=O)CC(C)C)[C@H](C)O3)[C@H](N(C)C)[C@H]2OC(C)=O)[C@@H](CC=O)C[C@@H](C)[C@@H](O[C@H]2CC[C@H](N(C)C)[C@@H](C)O2)/C=C/C=C/C[C@@H](C)OC(=O)C[C@H]1O`, for which a half-maximal response with Human coronavirus OC43 [3] (EC50) required 7.89 µM. The CC50 at 72 h in series [4] is 25.7 µM. In addition, in series [5], the selectivity ratio was determined as 3.3.
`CO[C@@H]1[C@@H](O[C@@H]2O[C@H](C)[C@@H](O[C@H]3C[C@@](C)(O)[C@@H](O)[C@H](C)O3)[C@H](N(C)C)[C@H]2OC(C)=O)[C@@H](CC=O)C[C@@H](C)[C@@H](O[C@H]2CC[C@H](N(C)C)[C@@H](C)O2)/C=C/C=C/C[C@@H](C)OC(=O)C[C@H]1O` showed an EC50 with Human coronavirus OC43 [3] of 29.8 µM. Besides, in series [4], the CC50 at 72 h was greater than 200 µM. In series [5], the selectivity ratio was greater than 6.71.
Taken in the same sequence, the figures for `CO[C@@H]1[C@@H](O[C@@H]2O[C@H](C)[C@@H](O[C@H]3C[C@@](C)(O)[C@@H](O)[C@H](C)O3)[C@H](N(C)C)[C@H]2OC(=O)CCCc2ccccc2)[C@@H](CC=O)C[C@@H](C)[C@@H](O[C@H]2CC[C@H](N(C)C)[C@@H](C)O2)/C=C/C=C/C[C@@H](C)OC(=O)C[C@H]1O` were 11.9 µM, 39.3 µM and 3.3.
`CO[C@@H]1[C@@H](O[C@@H]2O[C@H](C)[C@@H](O[C@H]3C[C@@](C)(O)[C@@H](O)[C@H](C)O3)[C@H](N(C)C)[C@H]2OC(=O)CCc2ccccc2)[C@@H](CC=O)C[C@@H](C)[C@@H](O[C@H]2CC[C@H](N(C)C)[C@@H](C)O2)/C=C/C=C/C[C@@H](C)OC(=O)C[C@H]1O` showed an EC50 in the series on Human coronavirus OC43 [3] of 3.89 µM. For the same compound, the CC50 at 72 h in series [4] worked out at 18.9 µM. The selectivity ratio in series [5] worked out at 4.8.
Take `CO[C@@H]1[C@@H](O[C@@H]2O[C@H](C)[C@@H](O[C@H]3C[C@@](C)(O)[C@@H](OC(=O)Cc4ccc(Cl)cc4)[C@H](C)O3)[C@H](N(C)C)[C@H]2O)[C@@H](CC=O)C[C@@H](C)[C@@H](O[C@H]2CC[C@H](N(C)C)[C@@H](C)O2)/C=C/C=C/C[C@@H](C)OC(=O)C[C@H]1O`: the outcome (in [6]; with Human coronavirus 229E [7]; in the series on Human coronavirus OC43 [9]) was Active. The compound also registered an EC50 with Human coronavirus OC43 [3] of 0.85 µM. In [4], the CC50 at 72 h is 17.4 µM. In series [5], the selectivity ratio worked out at 20.5. Further, the values for the dissociation constant Kd with FSE RNA pseudoknot and on DIS3-like exonuclease 2 were 7.29 µM and 4.67 µM, respectively. The Activity result (in the series on FSE RNA pseudoknot (unidentified human coronavirus); in [8]) was “Dose-dependent-effect” in each case.
Regarding `CO[C@@H]1[C@@H](O[C@@H]2O[C@H](C)[C@@H](O[C@H]3C[C@@](C)(O)[C@@H](O)[C@H](C)O3)[C@H](N(C)C)[C@H]2OC(=O)C2CCCC2)[C@@H](CC=O)C[C@@H](C)[C@@H](O[C@H]2CC[C@H](N(C)C)[C@@H](C)O2)/C=C/C=C/C[C@@H](C)OC(=O)C[C@H]1O`, the EC50 in the series with Human coronavirus OC43 [3] was greater than 12.5 µM. For the same compound, the CC50 at 72 h in series [4] worked out at 20 µM. For the same compound, the selectivity ratio in series [5] was less than 1.6.

A word on the EC50: it is the concentration giving half of the maximal effect. Usually Kd stands for the constant that tells how readily two partners part at equilibrium.

(Values after ChEMBL document CHEMBL6103594, “Synthesis and evolution of 16-membered macrolide carrimycin derivatives as a novel class of anti-HCoV-OC43 agents targeting viral FSE RNA” (Eur J Med Chem, 2025).)
